# Experimental data: US8952177B2 (Janssen Pharmaceutica NV, priority 2013, dated 2015)
# Counter-ions that a name gives are not always drawn.
# Legend:
# [1] = target: human FLAP (Homo sapiens (Human), UniProt P20292); experiment: FLAP binding assay (HTRF format); settings: human FLAP-containing Sf-9 membranes, 25 nM HTRF ligand, 2 h; average of runs; read-out: FLAP Binding wild type HTRF Ki
# Procedure: The ability of the compounds of the present invention to treat a FLAP-mediated disease and/or disorder, or associated symptoms or complications thereof, was determined using the following procedures. Binding assay data represent the average value obtained from two different assay plates, with samples run in duplicate on each plate. Human whole blood assay data represent a single replicate on an assay plate using whole blood from at least one healthy donor.
# The assay below is used to test the modulatory activity of compounds against FLAP. Human and mouse FLAP-encoding DNA was amplified by polymerase chain reaction and cloned into pFastBacl (Invitrogen) with a NH2-terminal 6-His tag for expression in Spodoptera frugiperda (Sf-9) cells. FLAP-containing membranes were prepared as was a FITC-labeled FLAP modulator (3-(3-(tert-butylthio)-1-(4-chlorobenzyl)-5-(quinolin-2-ylmethoxy)-1H-indol-2-yl)-2,2-dimethylpropanoic acid). The FLAP binding assay is performed in HTRF format (homogeneous time resolved fluorescence). […] The reaction is allowed to proceed for two hours after which the plate is read on an Envision plate reader in HTRF mode. Data are expressed as a HTRF ratio.
# For human FLAP binding assays, data are analyzed with 3DX Explorer software. […] For analysis, data from multiple runs are averaged and each compound may be tested in 2 to 20 runs. Each run comprises two plates and each plate includes duplicates. Data from each plate is averaged and data are imported into 3DX. The data from multiple runs are aggregated as the average of duplicates of the calculated ratios in order to calculate Ki and IC50 values. Numbers in parentheses are the number of runs for the assay.
# [2] = tested on: leukotriene pathway in human whole blood (LTB4); experiment: Human whole blood assay (LTB4 after calcium ionophore A23187 stimulation); assay type: cell-based; settings: Homo sapiens, human whole blood diluted 1:1 in RPMI, 15 min pre-incubation, A23187 7 μg/mL for 30 min at 37° Celsius
# Procedure, shortened: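 Heparinised human whole blood, diluted 1:1 in RPMI, was preincubated with compound for 15 min at 37° C. before stimulation with A23187 (7 μg/mL) for 30 min. Plasma LTB4 was measured by immunoassay kit and IC50 obtained by 4-parameter fit; single replicate per plate, blood from at least one donor.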
# human FLAP, sequence (P20292 whole entry): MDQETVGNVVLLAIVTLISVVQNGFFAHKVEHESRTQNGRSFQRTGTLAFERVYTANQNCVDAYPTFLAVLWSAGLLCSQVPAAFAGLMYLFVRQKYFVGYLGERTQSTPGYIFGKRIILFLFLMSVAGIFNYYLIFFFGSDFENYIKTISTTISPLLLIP
Ki [1] [nM],IC50 [2] [nM],Structure (SMILES)
53,> 10000,"Cc1ccc(COc2ccc3nc(C4CCCC[C@@H]4C(=O)O)n(Cc4ccc(C#N)cc4)c3c2)nc1 (mixture of isomers) [Example 18, racemic trans-2-{1-(4-Cyanobenzyl)-6-[(5-methylpyridin-2-yl)methoxy]-1H-benzimidazol-2-yl}cyclohexanecarboxylic acid as the TFA salt]"
0.64,480,"CCC(CC)(Cc1nc2ccc(OCc3ncc(C)cc3F)cc2n1Cc1ccc(Br)cc1)C(=O)O [Example 136, 2-({1-(4-Bromobenzyl)-6-[(3-fluoro-5-methylpyridin-2-yl)methoxy]-1H-benzimidazol-2-yl}methyl)-2-ethylbutanoic acid]"
~500,860,"Cn1ccc(COc2ccc3nc([C@@H]4[C@H](C(=O)O)C4(C)C)n(Cc4ccc(Br)cc4)c3c2)n1 (racemic) [Example 134, racemic cis-3-{1-(4-Bromobenzyl)-6-[(1-methyl-1H-pyrazol-3-yl)methoxy]-1H-benzimidazol-2-yl}-2,2-dimethylcyclopropanecarboxylic acid]"
30,1010,"Cn1ccc(COc2ccc3nc([C@@H]4CCCC[C@@H]4C(=O)O)n(Cc4ccc(OC(F)(F)F)cc4Cl)c3c2)n1 (racemic) [Example 103, racemic cis-2-{1-[2-Chloro-4-(trifluoromethoxy)benzyl]-6-[(1-methyl-1H-pyrazol-3-yl)methoxy]-1H-benzimidazol-2-yl}cyclohexanecarboxylic acid as the HCl salt]"
85,~20000,"Cc1ccc(COc2cc(Cl)c3nc(CC(C)(C)C(=O)O)n(Cc4ccc(Br)cc4)c3c2)nc1 [Example 79, 3-{1-(4-Bromobenzyl)-4-chloro-6-[(5-methylpyridin-2-yl)methoxy]-1H-benzimidazol-2-yl}-2,2-dimethylpropanoic acid]"
~1880,,"Cn1ccc(COc2ccc3nc([C@@H]4[C@@H](C(=O)O)C4(C)C)n(Cc4ccc(Br)cc4)c3c2)n1 (racemic) [Example 117, racemic trans-3-{1-(4-Bromobenzyl)-6-[(1-methyl-1H-pyrazol-3-yl)methoxy]-1H-benzimidazol-2-yl}-2,2-dimethylcyclopropanecarboxylic acid as the TFA salt]"
~750,,"Cn1ccc(COc2ccc3nc(C4CCCC[C@@H]4C(=O)O)n(Cc4ccc(C#N)cc4)c3c2)n1 (mixture of isomers) [Example 48, racemic trans-2-{1-(4-Cyanobenzyl)-6-[(1-methyl-1H-pyrazol-3-yl)methoxy]-1H-benzimidazol-2-yl}cyclohexanecarboxylic acid as the TFA salt]"
> 10000,,"Cc1ccc(COc2ccc3nc([C@@H]4CCCC[C@@H]4C(=O)O)n(Cc4ccc(C#N)cc4)c3c2)nc1 (stereo in doubt) [Example 38, (1S*,2R*)-2-{1-(4-Cyanobenzyl)-6-[(5-methylpyridin-2-yl)methoxy]-1H-benzimidazol-2-yl}cyclohexanecarboxylic acid]"
~100,,"CCC(CC)(Cc1nc2ccc(OCc3ccn(C)n3)cc2n1Cc1ccc(OC(F)(F)F)cc1)C(=O)O [Example 50, 2-Ethyl-2-({6-[(1-methyl-1H-pyrazol-3-yl)methoxy]-1-[4-(trifluoromethoxy)benzyl]-1H-benzimidazol-2-yl}methyl)butanoic acid]"

# The next lines start with the compound.
Structure (SMILES),Ki [1] [nM],IC50 [2] [nM]
"Cn1ccc(COc2cc(F)c3nc([C@H]4CCCC[C@H]4C(=O)O)n(Cc4ccc(OC(F)(F)F)cc4F)c3c2)n1 (racemic) [Example 96, racemic cis-2-{4-Fluoro-1-[2-fluoro-4-(trifluoromethoxy)benzyl]-6-[(1-methyl-1H-pyrazol-3-yl)methoxy]-1H-benzimidazol-2-yl}cyclohexanecarboxylic acid as the HCl salt]",7,810
"Cc1ccc(COc2ccc3nc([C@H]4CCCC[C@H]4C(=O)O)n(Cc4c(F)cc(-c5ccc(C(F)(F)F)cc5)cc4F)c3c2)nc1 (racemic) [Example 138, racemic cis-2-(1-{[3,5-Difluoro-4′-(trifluoromethyl)biphenyl-4-yl]methyl}-6-[(5-methylpyridin-2-yl)methoxy]-1H-benzimidazol-2-yl)cyclohexanecarboxylic acid]",2.5,97
"Cn1ccc(COc2ccc3nc([C@@H]4CCCC[C@@H]4C(=O)O)n(Cc4ccc(OC(F)(F)F)cc4F)c3c2)n1 (stereo in doubt) [Example 51, racemic cis-2-{1-[2-Fluoro-4-(trifluoromethoxy)benzyl]-6-[(1-methyl-1H-pyrazol-3-yl)methoxy]-1H-benzimidazol-2-yl}cyclohexanecarboxylic acid]",8,340
"Cc1cnc(COc2ccc3nc(CC(C)(C)C(=O)O)n(Cc4ccc(Br)cc4)c3c2)c(F)c1 [Example 128, 3-{1-(4-Bromobenzyl)-6-[(3-fluoro-5-methylpyridin-2-yl)methoxy]-1H-benzimidazol-2-yl}-2,2-dimethylpropanoic acid]",8.5,1320
"Cc1ccc(COc2ccc3nc([C@@H]4CCCC[C@@H]4C(=O)O)n(Cc4ccc(OC(F)(F)F)cc4C)c3c2)nc1 (racemic) [Example 100, racemic cis-2-{6-[(5-Methylpyridin-2-yl)methoxy]-1-[2-methyl-4-(trifluoromethoxy)benzyl]-1H-benzimidazol-2-yl}cyclohexanecarboxylic acid]",19,2540
"Cn1ccc(COc2ccc3nc([C@@H]4CCCC[C@@H]4C(=O)O)n(Cc4ccc(OC(F)(F)F)cc4F)c3c2)n1 (stereo in doubt) [Example 52, (1S*,2R*)-2-{1-[2-Fluoro-4-(trifluoromethoxy)benzyl]-6-[(1-methyl-1H-pyrazol-3-yl)methoxy]-1H-benzimidazol-2-yl}cyclohexanecarboxylic acid]",> 10000,> 10000
"Cn1ccc(COc2cc(F)c3nc([C@@H]4CCCC[C@@H]4C(=O)O)n(Cc4ccc(OC(F)(F)F)cc4)c3c2)n1 (racemic) [Example 95, racemic cis-2-{4-Fluoro-6-[(1-methyl-1H-pyrazol-3-yl)methoxy]-1-[4-(trifluoromethoxy)benzyl]-1H-benzimidazol-2-yl}cyclohexanecarboxylic acid as the HCl salt]",3.6,1350
CCC(CC)(Cc1nc2ccc(OCc3ccn(C)n3)cc2n1Cc1ccc(OC(F)(F)F)cc1C)C(=O)O [Example 92],~250,1440
"Cc1cnc(COc2ccc3nc([C@H]4CCCC[C@H]4C(=O)O)n(Cc4c(F)cc(-c5ccc(C(F)(F)F)cc5)cc4F)c3c2)c(F)c1 (racemic) [Example 137, racemic cis-2-(1-((3,5-difluoro-4′-(trifluoromethyl)-[1,1′-biphenyl]-4-yl)methyl)-6-((3-fluoro-5-methylpyridin-2-yl)methoxy)-1H-benzo[d]imidazol-2-yl)cyclohexanecarboxylic acid]",0.66,91
"CCC(CC)(Cc1nc2ccc(OCc3ncc(C)cc3F)cc2n1Cc1ccc(N2CCC(C)CC2)cc1)C(=O)O [Example 180, 2-Ethyl-2-({6-[(3-fluoro-5-methylpyridin-2-yl)methoxy]-1-[4-(4-methylpiperidin-1-yl)benzyl]-1H-benzimidazol-2-yl}methyl)butanoic acid]",3,560
"Cc1cnc(COc2ccc3nc([C@H]4CCCC[C@H]4C(=O)O)n(Cc4ccc(N5CCC(F)CC5)cc4)c3c2)c(F)c1 (relative stereo) [Example 176, (1R*,2S*)-2-{6-[(3-Fluoro-5-methylpyridin-2-yl)methoxy]-1-[4-(4-fluoropiperidin-1-yl)benzyl]-1H-benzimidazol-2-yl}cyclohexanecarboxylic acid]",0.42,110
"CCC(CC)(Cc1nc2ccc(OCc3ccc(C)cn3)cc2n1Cc1ccc(OC(F)(F)F)c(Cl)c1)C(=O)O [Example 24, 2-({1-[3-Chloro-4-(trifluoromethoxy)benzyl]-6-[(5-methylpyridin-2-yl)methoxy]-1H-benzimidazol-2-yl}methyl)-2-ethylbutanoic acid]",11,> 10000
"Cc1ccc(COc2cc3c(cc2Cl)nc([C@H]2CCCC[C@H]2C(=O)O)n3Cc2ccc(OC(F)(F)F)cc2F)nc1 (racemic) [Example 110, racemic cis-2-{5-Chloro-1-[2-fluoro-4-(trifluoromethoxy)benzyl]-6-[(5-methylpyridin-2-yl)methoxy]-1H-benzimidazol-2-yl}cyclohexanecarboxylic acid as the HCl salt]",920,
"Cc1cccc(COc2ccc3nc(CC(C)(C)C(=O)O)n(Cc4ccc(Br)cc4)c3c2)n1 [Example 108, 3-{1-(4-Bromobenzyl)-6-[(6-methylpyridin-2-yl)methoxy]-1H-benzimidazol-2-yl}-2,2-dimethylpropanoic acid]",2240,
